Tests used:
[1] = tested on: BV-2 cells; assay: qPCR of pro-inflammatory gene expression in LPS-stimulated BV-2 cells; assay type: cell-based, murine; conditions: LPS 10 ng/ml, 6 h
Experimental: Murine microglial-like BV-2 cells were grown in DMEM medium supplemented with 10% heat-inactivated fetal bovine serum (HyClone, Logan, Utah) and 100 units/ml each of penicillin and streptomycin and were maintained at 37° C. in a humidified atmosphere containing 5% CO2. For primary microglial cultures, cerebral cortices were isolated from postnatal day 2 Sprague-Dawley rat pups obtained from Charles River Laboratories International, Inc. (Davis, Calif.). Tissues were minced and incubated in 0.25% trypsin-EDTA, mechanically triturated in DMEM/F-12 with 10% FBS, and plated on poly-L-lysine-coated […]. Cultures were maintained for 14 days with media changes every 4 days. […]
qPCR was carried out as previously described (Liang et al., 2008). […] The mRNA level for each target gene was quantified by SYBR Green-based qPCR using the QuantiTect SYBR Green PCR kit (Qiagen). […] Quantification was performed using the standard curve method. […]
Inflammatory stimuli such as LPS can activate microglia through the CD14/TLR4 receptor complex and induce the expression of pro-inflammatory enzymes and cytokines (Fassbender et al., 2004; Walter et al., 2007). […] BV-2 cells were treated with LPS (10 ng/ml) in the presence or absence of the selective EP4 agonist AE1-329 (1 μM) for 6 h, and pro-inflammatory gene expression was measured using qPCR (see FIG. 2). […]

[2] = tested on: Akt phosphorylation in BV-2 cells; assay: phospho-Akt quantitative Western (Ser473) and ELISA (Thr308) in LPS-treated BV-2 cells; assay type: cell-based, murine
Experimental: Nuclear and cytoplasmic fractions of BV-2 cells were prepared at several time points after treatment (0-120 minutes) using the nuclear extract kit from Active Motif (Carlsbad, Calif.). Briefly, cells were washed, collected in ice-cold PBS in the presence of phosphatase inhibitors, and centrifuged at 300×g for 5 min at 4° C. Cell pellets were resuspended in hypotonic buffer, treated with detergent, and centrifuged at 14,000×g for 30 sec at 4° C. After collection of the cytoplasmic fraction, nuclei were solubilized for 30 min in lysis buffer containing protease inhibitors. Lysates were centrifuged at 14,000×g for 30 min at 4° C. and supernatants were collected for NF-κB studies. To prepare whole cell lysates for phospho-Akt and phospho-IKK studies, cells were washed in ice-cold PBS and lysed in 20 mM Tris-HCl, pH 7.5, 150 mM NaCl, 1 mM Na2EDTA, 1 mM EGTA, 1% Triton, 2.5 mM sodium pyrophosphate, 1 mM β-glycerophosphate, 1 mM orthovanadate, 1 μg/ml leupeptin and 1 mM PMSF. Lysates were sonicated for 5 seconds, centrifuged at 14,000×g for 10 min at 4° C. and supernatants were collected for phospho-Akt and phospho-IKK studies. All protein concentrations were determined using the Bradford protein assay.
Western blot analysis. […] Immunoreactivity was detected using either sheep anti-rabbit or sheep anti-mouse HRP-conjugated secondary antibody (Amersham Biosciences, Arlington Heights, Ill.), followed by enhanced chemiluminescence (Pierce). Autoradiographic signals were quantified using NIH Image. […]
Measurements of phospho-Akt and total Akt were determined using the PathScan phospho-Akt (Thr308) and total Akt1 ELISA kits (Cell Signaling Technology, Danvers, Mass.). […]
In addition to its known Gas coupling to PKA, the EP4 receptor can signal via PI3K and Akt via a Gαi subunit (Fujino et al., 2002; Fujino & Regan, 2006). To further investigate whether EP4 signaling modulates PI3K/Akt pathway activity in LPS-stimulated BV-2 cells, levels of phospho-Akt were measured using quantitative Western analysis (phosphorylated Ser473 Akt; FIG. 3C) and ELISA (phosphorylated Thr308 Akt; FIG. 3D). […]

COCc1ccccc1CC[C@H](O)/C=C/[C@H]1[C@H](O)CC(=O)[C@@H]1SCCCSCC(=O)O [AE1-329]
LPS-induced mRNA of COX-2, iNOS, gp91phox, TNF-α, IL-1β and IL-6 ([1]; AE1-329 1 μM, qPCR): significantly blunted the induction of these genes
IL-10 mRNA expression ([1]; co-stimulation with AE1-329 1 μM): significantly induced expression
Akt phosphorylation, agonist alone ([2]; BV-2 cells, in the absence of LPS): did not alter Akt phosphorylation
phospho-Ser473 Akt signal (quantitative Western) ([2]; LPS (100 ng/ml) treated BV-2 cells, AE1-329 100 nM, over 60 minutes): significant attenuation
phospho-Thr308 Akt (ELISA, p-Akt/Akt) ([2]; LPS-treated BV-2 cells, AE1-329 100 nM, 60 minutes): significant decrease
